According to patent publication US9637499B2, “Benzodioxole or benzodioxepine heterocyclic compounds as phosphodiesterase inhibitors” (LEO PHARMA A/S, priority 2010, dated 2017):

Key:
[1] = target: Human recombinant PDE4 (Genbank accession no NM_006203) (Homo sapiens (Human), UniProt Q08499); assay: PDE4 Assay (SPA, cAMP cleavage); format: biochemical; settings: human recombinant PDE4, 1 hour incubation, cAMP 1x10-5 M
Protocol: At the end of the incubation, the cleavage of the substrate was evaluated by the binding of the AMP product to SPA beads, which generate chemoluminescence when bound to the radioactive tracer. The AMP product inhibited the binding of the radioactive tracer to the beads, and the luminescent signal was competed.
The results were calculated as the molar concentrations resulting in 50% inhibition of the substrate cleavage compared to controls samples, and are expressed as IC50 (M).

[2] = In vivo pharmacokinetic analyses in rat, oral dosing; settings: serum, PO dosing 5 mg/kg
Protocol: One rat is dosed orally (5 mg/kg—dissolved in DMSO/H2O/propylenglycol [1:5:4]) and blood samples are taken from the sublingual venous plexus at 30 min, 1 h, 2 h, 4 h and 6 h. Blood samples are taken in BD Vacutainer SST serum separation tubes, serum is isolated by centrifugation, transferred to micronics tubes and subsequently analysed.
Mass spectrometer (API5000 series) parameters are optimised to analyse for the specific compounds and test injections are performed to confirm the validity of the established generic chromatography method. The generic method is based on fast gradient (2.5 min) analysis on C18 column with mobile phases consisting methanol, ammonium acetate, formic acid and water.
Standards are prepared in rat serum to cover the analytical range 0.1 to 300 ng/ml. Standards, blank serum and study samples are applied to 96 deepwell plate and proteins are precipitated by addition of acetonitrile containing internal standard. Samples are analysed on LC-MS/MS usually overnight. Integration and quantification is performed on ration between analyte and internal standard using Analyst software version 1.5. Pharmacokinetic parameters are calculated using a standardised Excel spreadsheet.
In vivo pharmacokinetic profile in rat of compound 101 disclosed in WO 2008/104175 and compound 105 and 106 disclosed in examples 5 and 6, respectively: […]

Human recombinant PDE4 (Genbank accession no NM_006203), sequence (Q08499 other isoform, or with tags, fused parts or gaps): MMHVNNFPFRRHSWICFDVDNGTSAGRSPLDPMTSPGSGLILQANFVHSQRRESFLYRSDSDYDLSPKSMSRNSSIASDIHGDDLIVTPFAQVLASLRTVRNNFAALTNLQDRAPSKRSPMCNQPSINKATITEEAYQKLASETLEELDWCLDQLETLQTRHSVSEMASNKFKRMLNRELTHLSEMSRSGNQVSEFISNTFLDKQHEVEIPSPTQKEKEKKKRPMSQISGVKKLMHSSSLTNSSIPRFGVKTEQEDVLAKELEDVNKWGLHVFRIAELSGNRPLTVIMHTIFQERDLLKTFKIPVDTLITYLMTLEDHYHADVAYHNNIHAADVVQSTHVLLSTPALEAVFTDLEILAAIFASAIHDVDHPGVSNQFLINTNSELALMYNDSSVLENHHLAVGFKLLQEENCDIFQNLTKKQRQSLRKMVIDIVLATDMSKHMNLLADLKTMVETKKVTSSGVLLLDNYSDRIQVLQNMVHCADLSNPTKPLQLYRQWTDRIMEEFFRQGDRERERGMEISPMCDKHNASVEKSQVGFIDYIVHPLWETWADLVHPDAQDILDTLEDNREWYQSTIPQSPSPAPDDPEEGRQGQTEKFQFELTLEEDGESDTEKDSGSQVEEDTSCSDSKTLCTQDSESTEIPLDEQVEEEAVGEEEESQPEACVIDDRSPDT

| SMILES | IC50 [1] [nM] | bioavailability [2] [%] |
| --- | --- | --- |
| O=C(Nc1c(Cl)c[n+](O)cc1Cl)c1ccc(OC(F)F)c2c1OC1(CCS(=O)(=O)CC1)O2 [compound 111, N-(3,5-dichloro-1-oxo-4-pyridyl)-7-(difluoromethoxy)-1′,1′-dioxo-spiro[1,3-benzodioxole-2,4′-thiane]-4-carboxamide] | 106 |  |
| O=C(Cc1c(Cl)c[n+]([O-])cc1Cl)c1ccc(OC(F)F)c2c1OC1(CCOCC1)O2 [compound 106, 2-(3,5-Dichloro-1-oxido-pyridine-4-yl)-1-(7-difluoromethoxy-2′,3′,5′,6′-tetrahydro-spiro[1,3-benzodioxole-2,4′-(4H)-pyran]-4-yl)ethanone] |  | 22 |
